The record followed here is patent US20140378408A1, “NUCLEOSIDE 5'-PHOSPHOROTHIOATE ANALOGUES AND USES THEREOF” (BAR-ILAN UNIVERSITY, an Israeli University, priority 2012, published 2014).

The target in one data set is T1, human NTPDase3 (Homo sapiens, UniProt O75355).
T1 sequence (O75355 1-529): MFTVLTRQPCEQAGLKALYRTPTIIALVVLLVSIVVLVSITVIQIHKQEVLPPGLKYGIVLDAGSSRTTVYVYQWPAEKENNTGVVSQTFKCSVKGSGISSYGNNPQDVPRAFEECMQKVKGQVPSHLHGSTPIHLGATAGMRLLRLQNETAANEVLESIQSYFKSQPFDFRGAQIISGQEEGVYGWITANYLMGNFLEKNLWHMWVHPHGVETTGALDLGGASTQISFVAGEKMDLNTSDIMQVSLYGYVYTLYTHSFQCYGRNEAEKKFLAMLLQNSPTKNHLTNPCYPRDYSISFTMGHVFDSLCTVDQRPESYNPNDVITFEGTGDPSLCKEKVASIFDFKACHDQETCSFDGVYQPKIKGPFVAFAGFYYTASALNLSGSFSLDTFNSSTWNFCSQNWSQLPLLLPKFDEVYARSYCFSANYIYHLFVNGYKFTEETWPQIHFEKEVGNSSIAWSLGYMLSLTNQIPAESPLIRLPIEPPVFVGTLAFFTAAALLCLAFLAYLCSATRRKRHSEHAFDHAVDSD
The experiment in a line: Hydrolysis by human NTPDase3. More on the design: made in house; host or cells: COS-7 cells (transfected; protein extract). Type of data set: in vitro ADME. The following applies: for Hydrolysis by NTPDase3: 100 μM, 1 h, activity with 100 μM ATP = 100%.

For data set [1], the target named is T2, human NPP1 (Homo sapiens, UniProt P22413).
T2 construct: made in house; host or cells: COS-7 cells (transfected; protein extract / cell lysate)
T2 sequence (P22413 1-925): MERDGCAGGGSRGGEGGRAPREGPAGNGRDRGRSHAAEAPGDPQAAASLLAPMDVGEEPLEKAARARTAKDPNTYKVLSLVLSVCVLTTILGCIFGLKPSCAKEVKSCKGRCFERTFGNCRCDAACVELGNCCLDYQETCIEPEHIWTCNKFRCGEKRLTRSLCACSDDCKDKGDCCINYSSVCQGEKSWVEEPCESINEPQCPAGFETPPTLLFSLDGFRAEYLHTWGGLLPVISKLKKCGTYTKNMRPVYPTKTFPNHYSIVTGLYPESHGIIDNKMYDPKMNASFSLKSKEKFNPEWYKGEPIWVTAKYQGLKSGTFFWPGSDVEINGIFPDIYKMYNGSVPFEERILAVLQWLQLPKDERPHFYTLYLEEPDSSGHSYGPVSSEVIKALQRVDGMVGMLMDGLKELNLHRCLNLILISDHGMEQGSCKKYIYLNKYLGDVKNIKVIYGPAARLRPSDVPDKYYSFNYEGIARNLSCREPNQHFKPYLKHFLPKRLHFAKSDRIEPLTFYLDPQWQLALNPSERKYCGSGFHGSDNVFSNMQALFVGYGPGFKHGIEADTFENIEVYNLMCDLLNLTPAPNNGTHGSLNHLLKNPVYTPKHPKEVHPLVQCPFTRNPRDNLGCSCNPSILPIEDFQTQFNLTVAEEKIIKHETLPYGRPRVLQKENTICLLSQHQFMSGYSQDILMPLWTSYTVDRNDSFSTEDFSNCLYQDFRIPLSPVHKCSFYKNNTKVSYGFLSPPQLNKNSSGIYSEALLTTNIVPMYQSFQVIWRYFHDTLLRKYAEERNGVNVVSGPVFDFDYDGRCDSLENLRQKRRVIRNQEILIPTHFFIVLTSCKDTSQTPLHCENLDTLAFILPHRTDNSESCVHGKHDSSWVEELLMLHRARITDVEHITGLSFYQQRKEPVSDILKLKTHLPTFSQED
Put plainly: Inhibition of NPP1 activity. Type of data set: biochemical. The following applies: for inhibition of pnp-TMP hydrolysis by NPP1: analogue and pnp-TMP 100 μM; for type of inhibition: Dixon and Cornish-Bowden methods.

For another data set, the target named is T3, human NPP3 (Homo sapiens, UniProt O14638).
T3 construct: made in house; host or cells: COS-7 cells (transfected; protein extract / cell lysate)
T3 sequence (O14638 1-875): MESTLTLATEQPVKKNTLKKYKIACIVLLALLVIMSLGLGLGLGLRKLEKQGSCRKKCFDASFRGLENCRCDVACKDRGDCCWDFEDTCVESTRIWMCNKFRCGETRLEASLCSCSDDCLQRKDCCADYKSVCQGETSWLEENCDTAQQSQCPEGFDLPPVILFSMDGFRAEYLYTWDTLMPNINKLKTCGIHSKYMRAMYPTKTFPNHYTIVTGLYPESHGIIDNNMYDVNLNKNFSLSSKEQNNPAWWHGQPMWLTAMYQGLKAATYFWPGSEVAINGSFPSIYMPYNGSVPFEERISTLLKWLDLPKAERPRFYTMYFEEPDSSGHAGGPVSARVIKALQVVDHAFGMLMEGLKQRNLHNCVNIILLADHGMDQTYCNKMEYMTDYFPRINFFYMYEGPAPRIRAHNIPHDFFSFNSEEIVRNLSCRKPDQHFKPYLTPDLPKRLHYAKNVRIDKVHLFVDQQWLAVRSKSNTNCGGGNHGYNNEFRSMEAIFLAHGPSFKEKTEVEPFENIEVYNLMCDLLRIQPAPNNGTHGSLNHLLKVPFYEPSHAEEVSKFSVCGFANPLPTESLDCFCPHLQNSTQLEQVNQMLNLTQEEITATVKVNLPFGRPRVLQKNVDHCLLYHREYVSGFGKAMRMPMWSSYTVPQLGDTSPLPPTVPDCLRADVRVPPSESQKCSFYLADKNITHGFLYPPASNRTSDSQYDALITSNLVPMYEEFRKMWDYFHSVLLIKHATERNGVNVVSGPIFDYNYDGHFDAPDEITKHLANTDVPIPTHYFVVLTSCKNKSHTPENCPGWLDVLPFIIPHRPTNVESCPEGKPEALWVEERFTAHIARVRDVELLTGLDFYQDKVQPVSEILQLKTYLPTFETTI
The experiment in a line: Inhibition of NPP3 activity. Type of data set: biochemical. The following applies: for inhibition of pnp-TMP hydrolysis by NPP3: analogue and pnp-TMP 100 μM; for inhibition at 100 µM: read-out: inhibition of NPP3 activity. Here is the method:
Pnp-TMP hydrolyses were carried out at 37° C. in 0.2 ml of the following incubation mixture: in mM, 1 CaCl2, 130 NaCl, 5 KCl and 50 Tris, pH 8.5, with or without the analogue tested and/or substrates. Substrates and analogues were all used at the final concentration of 100 μM. […] For pnp-TMP hydrolysis, the production of para-nitro-phenol was measured at […], 15 min after the initiation of the reaction.
The samples were centrifuged for 5 min at 13,000×g. Supernatants were neutralized with 1 M KOH (Fisher Scientific, Ottawa, ON, Canada) at 4° C. and centrifuged for 5 min at 13,000×g.

Data set [2] addresses T2, human NPP1. Put plainly: Inhibition of NPP1 activity. Type of data set: biochemical. The note with it: pNP-TMP 5·10^−5 M.

Where two headings read alike, the source gives them in different places.

With `Nc1ncnc2c1ncn2[C@@H]1O[C@H](COP(=O)(O)OP(O)(O)=S)[C@@H](O)[C@H]1O` [ADP-β-S, adenosine 5′-[β-thio]diphosphate, reference compound], at human NTPDase3, the “Relative hydrolysis by NTPDase3” value is reported as 2 ± 0.1 % ± SD of ADP or AP2A hydrolysis. Besides, at human NPP1 [1], the “inhibition of pnp-TMP hydrolysis by NPP1” value was found to be 95%. At human NPP3, the “inhibition of pnp-TMP hydrolysis by NPP3” value was “less than 50%”.

Take `Nc1ncnc2c1ncn2[C@@H]1O[C@H](COP(O)(=S)OP(=O)(O)CP(=O)(O)O)[C@@H](O)[C@H]1O` (single isomer, unassigned; isomer b) [APPCP-α-S (isomer B), adenosine 5′-[Pα-thio]-β,γ-methylenetriphosphate]: the “Hydrolysis by NTPDase3” value on human NTPDase3 (listed as APPCP-α-S B) is 4.8 ± 0.2%. Also, the Ki – broadly, a measure of affinity in units of concentration, obtained from inhibition or displacement – at human NPP1 [1] (pNP-TMP as substrate, Dixon plot, listed as APPCP-α-S B, read-out: Ki) was 1300 ± 10 nM. Also, inhibition against human NPP1 [2] (listed as APPCP-α-S B) was half-maximal at 18700 ± 30 nM (IC50).

For the compound adenosine-5′-tetrathiobisphosphonate, the “inhibition of pnp-TMP hydrolysis by NPP1” value against human NPP1 [1] came to 4%. Besides, the “inhibition of pnp-TMP hydrolysis by NPP3” value on human NPP3 turned out to be 7%.

With `Nc1ncnc2c1ncn2[C@@H]1O[C@H](COP(O)(=S)OP(=O)(O)C(Cl)(Cl)P(=O)(O)O)[C@@H](O)[C@H]1O` (single isomer, unassigned) [APPCCl2P-α-S, adenosine 5′-[Pα-thio]-β,γ-(dichloromethylene)triphosphate], on human NPP1 [1], the IC50 (usually the concentration that gives 50% inhibition) amounted to 390 nM; the Ki stood at 20 nM; the type of inhibition result was “mixed type inhibition, predominantly competitive”. Further, at human NPP3, the “inhibition of the hydrolysis of ATP by NPP3” value is 33% and the inhibition (usually the relative decrease from the control value, in per cent) at 100 µM lay in the range of 23 to 43%.

For the compound `Nc1ncnc2c1ncn2[C@@H]1O[C@H](COP(O)(=S)OP(=O)(O)C(Cl)(Cl)P(=O)(O)O)[C@@H](O)[C@H]1O` (single isomer, unassigned; isomer a) [APPCCl2P-α-S (isomer A), adenosine 5′-[Pα-thio]-β,γ-(dichloromethylene)triphosphate], the “Hydrolysis by NTPDase3” value at human NTPDase3 (listed as APPCCl2P-α-S A) is listed as 5.2 ± 0.2%. Moreover, the concentration for half-maximal inhibition (IC50) at human NPP1 [1] (NPP1, text, read-out: IC50) was determined as 600 nM. For the same compound, the Ki at human NPP1 [1] (NPP1, text, read-out: Ki) was 685 nM.

For the compound `Nc1ncnc2c1ncn2[C@@H]1O[C@H](COP(=O)(O)CP(=O)(O)OP(O)(O)=S)[C@@H](O)[C@H]1O` [APCPP-γ-S, adenosine 5′-[Pγ-thio]-α,β-methylenetriphosphate], at human NTPDase3, the “Hydrolysis by NTPDase3” value is given as 4.8 ± 0.2%. Also, the Ki on human NPP1 [1] was under 9000 nM; on human NPP1 [1] (NPP1, text, read-out: Ki), 20 nM. Further, the type of inhibition result on human NPP1 [1] is recorded as “mixed type inhibition, predominantly competitive”. Besides, the inhibition at 100 µM at human NPP3 lay within 23 to 43%. The compound also registered an IC50 against human NPP1 [2] of 390 ± 1 nM.

Regarding `Nc1ncnc2c1ncn2[C@@H]1O[C@H](COP(O)(=S)OP(=O)(O)CP(=O)(O)O)[C@@H](O)[C@H]1O` (single isomer, unassigned; isomer a) [APPCP-α-S (isomer A), adenosine 5′-[Pα-thio]-β,γ-methylenetriphosphate], on human NTPDase3 (listed as APPCP-α-S A), the “Hydrolysis by NTPDase3” value turned out to be 4.2%. Also, the inhibitory constant (Ki) at human NPP1 [1] (dissociation constant for EIS complex, Cornish-Bowden plot, listed as APPCP-α-S A, read-out: Ki′) turned out to be 4500 ± 3 nM; on human NPP1 [1] (pNP-TMP as substrate, Dixon plot, listed as APPCP-α-S A, read-out: Ki), 4500 ± 30 nM. The compound further returned an IC50 at human NPP1 [2] (listed as APPCP-α-S A) of 16300 ± 40 nM.

On to “di-adenosine-5′,5″-tetrathiobisphosphonate”, for which the “Relative hydrolysis by NTPDase3” value on human NTPDase3 was 2.0 ± 0.1 % ± SD of ADP or AP2A hydrolysis. Further, on human NPP1 [1], the “inhibition of pnp-TMP hydrolysis by NPP1” value was about 60%. Besides, the “inhibition of pnp-TMP hydrolysis by NPP3” value against human NPP3 is on record as 20%.

Turning to `Nc1ncnc2c1ncn2[C@@H]1O[C@H](COP(O)(=S)OP(=O)(O)C(Cl)(Cl)P(=O)(O)O)[C@@H](O)[C@H]1O` (single isomer, unassigned; isomer b) [APPCCl2P-α-S (isomer B), adenosine 5′-[Pα-thio]-β,γ-(dichloromethylene)triphosphate], the “Hydrolysis by NTPDase3” value on human NTPDase3 (listed as APPCCl2P-α-S B) is listed as 5.4%. On human NPP1 [1] (pNP-TMP as substrate, Dixon plot, read-out: Ki), the Ki is 15200 ± 100 nM. The compound also registered a half-inhibitory concentration (IC50) against human NPP1 [2] of 31200 ± 100 nM.
